Measurements published in US9328112B2, “Tetracyclic CDK9 kinase inhibitors” (AbbVie Inc., priority 2014, dated 2016).

What was measured:
H929 cells = test: Cell viability assay (Cell TiterGlo); assay type: cell-based; conditions: Cell TiterGlo luminescence
Method: The cell viability assay was performed using H929 cells. Cells were seeded in 96-well plates at 10,000 cells/well and, after overnight incubation, treated with compounds in a dose response of 3-fold dilutions from 10 μM to 0.005 μM ([…], 0.1% final DMSO concentration). After 24 hours at 37° C., cell viability was measured using Cell TiterGlo reagent (Promega) with a luminescence reader.

CDK9/Cyclin T1 = CDK9/Cyclin T1 (Homo sapiens (Human), UniProt P50750); test: CDK9 enzyme assay (LANCE ULight TR-FRET kinase assay); assay type: biochemical; conditions: 1000 μM ATP, 100 nM ULight MBP, kinase reaction 1 hour
Procedure, shortened: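 Human CDK9/Cyclin T1 phosphorylating 100 nM ULight-MBP with 1000 μM ATP in HEPES/MgCl2 buffer, 1 h reaction. Stopped with 20 mM EDTA plus 0.5 nM Eu anti-phospho-MBP antibody, incubated 1 h, read by TR-FRET (ex 320 nm, em 615/665 nm).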

[1] = Homo sapiens, NCI-H929, 24 hours at 37° C.

Sequence of CDK9/Cyclin T1 (P50750 whole entry): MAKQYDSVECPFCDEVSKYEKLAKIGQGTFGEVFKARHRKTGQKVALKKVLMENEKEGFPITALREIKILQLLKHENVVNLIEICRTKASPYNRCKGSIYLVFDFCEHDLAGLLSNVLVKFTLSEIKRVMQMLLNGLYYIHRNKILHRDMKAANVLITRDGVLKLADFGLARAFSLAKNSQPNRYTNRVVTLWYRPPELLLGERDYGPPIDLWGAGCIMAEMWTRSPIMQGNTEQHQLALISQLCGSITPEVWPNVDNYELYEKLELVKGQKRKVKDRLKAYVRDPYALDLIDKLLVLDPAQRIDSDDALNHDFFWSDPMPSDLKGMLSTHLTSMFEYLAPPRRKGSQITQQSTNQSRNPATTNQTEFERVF
Sequence of CDK9/Cyclin T1 (O60563 whole entry partner): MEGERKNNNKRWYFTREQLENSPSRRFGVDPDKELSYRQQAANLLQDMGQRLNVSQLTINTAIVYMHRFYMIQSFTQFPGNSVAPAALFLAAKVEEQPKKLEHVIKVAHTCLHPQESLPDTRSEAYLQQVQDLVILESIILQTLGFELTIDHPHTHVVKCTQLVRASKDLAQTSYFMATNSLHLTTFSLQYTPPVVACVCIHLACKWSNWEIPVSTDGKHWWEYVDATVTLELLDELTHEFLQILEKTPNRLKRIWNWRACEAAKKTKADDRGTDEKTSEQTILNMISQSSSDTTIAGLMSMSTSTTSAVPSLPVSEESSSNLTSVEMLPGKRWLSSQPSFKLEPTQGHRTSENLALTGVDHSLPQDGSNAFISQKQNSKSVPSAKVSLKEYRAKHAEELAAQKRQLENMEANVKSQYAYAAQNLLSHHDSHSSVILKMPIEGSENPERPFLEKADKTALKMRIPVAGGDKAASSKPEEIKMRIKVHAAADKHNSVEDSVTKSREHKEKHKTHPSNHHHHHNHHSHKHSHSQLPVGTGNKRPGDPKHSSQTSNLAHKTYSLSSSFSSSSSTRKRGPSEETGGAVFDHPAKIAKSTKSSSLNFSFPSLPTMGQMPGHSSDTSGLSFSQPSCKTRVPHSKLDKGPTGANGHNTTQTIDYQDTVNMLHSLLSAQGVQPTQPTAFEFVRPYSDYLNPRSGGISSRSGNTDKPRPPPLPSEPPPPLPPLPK

Row | Structure (SMILES) | IC50 (H929 cells; [1]) [nM] | IC50 (CDK9/Cyclin T1) [nM] | IC50 (H929 cells; 24 hours at 37° C.) [nM]
1 | CN(CC(O)CO)C(=O)CN1CC=C(c2[nH]c3nccc4c3c2CN(C)c2ccc(F)cc2-4)C(C)(C)C1 (centres unmarked) [Example 119, N-(2,3-dihydroxypropyl)-2-[4-(10-fluoro-7-methyl-6,7-dihydro-4H-3,4,7-triazadibenzo[cd,f]azulen-5-yl)-3,3-dimethyl-3,6-dihydropyridin-1(2H)-yl]-N-methylacetamide] | 2400 | 1300 | 
2 | CN1Cc2c(C3=CCCN(CC(=O)N4CCC[C@H]4CO)C3)[nH]c3nccc(c23)-c2cc(F)ccc21 [Example 120, 2-[5-(10-fluoro-7-methyl-6,7-dihydro-4H-3,4,7-triazadibenzo[cd,f]azulen-5-yl)-3,6-dihydropyridin-1(2H)-yl]-1-[(2S)-2-(hydroxymethyl)pyrrolidin-1-yl]ethanone] | 2100 | 480 | 
3 | CN1Cc2c(C3=CCCN(CC(=O)N4CC(O)C4)C3)[nH]c3nccc(c23)-c2cc(F)ccc21 [Example 121, 2-[5-(10-fluoro-7-methyl-6,7-dihydro-4H-3,4,7-triazadibenzo[cd,f]azulen-5-yl)-3,6-dihydropyridin-1(2H)-yl]-1-(3-hydroxyazetidin-1-yl)ethanone] | 1100 | 160 | 
4 | CN1Cc2c(C3=CCCN(CC(=O)N(C)C4CC(O)C4)C3)[nH]c3nccc(c23)-c2cc(F)ccc21 (centres unmarked) [Example 122, 2-[5-(10-fluoro-7-methyl-6,7-dihydro-4H-3,4,7-triazadibenzo[cd,f]azulen-5-yl)-3,6-dihydropyridin-1(2H)-yl]-N-(3-hydroxycyclobutyl)-N-methylacetamide] | 1400 | 420 | 
5 | CN1Cc2c(C3=C[C@H](CO)NCC3)[nH]c3nccc(c23)-c2cc(F)c(F)cc21 [Example 126, [(2R)-4-(9,10-difluoro-7-methyl-6,7-dihydro-4H-3,4,7-triazadibenzo[cd,f]azulen-5-yl)-1,2,5,6-tetrahydropyridin-2-yl]methanol] | 39 | 58 | 
6 | CN1CCc2c(C3=CCNCC3)[nH]c3nccc(c23)-c2cc(F)ccc21 [Example 127, 8-fluoro-5-methyl-2-(1,2,3,6-tetrahydropyridin-4-yl)-1,3,4,5-tetrahydro-1,5,12-triazabenzo[4,5]cycloocta[1,2,3-cd]indene] |  | 26 | 100

Now from value to molecule, other results behind:

Row | IC50 (H929 cells; [1]) [nM] | IC50 (CDK9/Cyclin T1) [nM] | Structure (SMILES) | IC50 (H929 cells; 24 hours at 37° C.) [nM]
7 | 3100 | 540 | CN(CC(O)CO)C(=O)CN1CCC=C(c2[nH]c3nccc4c3c2CN(C)c2ccc(F)cc2-4)C1 (centres unmarked) [Example 123, N-(2,3-dihydroxypropyl)-2-[5-(10-fluoro-7-methyl-6,7-dihydro-4H-3,4,7-triazadibenzo[cd,f]azulen-5-yl)-3,6-dihydropyridin-1(2H)-yl]-N-methylacetamide] | 
8 | 88 | 48 | CN1Cc2c(C3=CCN([C@H]4CC[C@@H](CC(=O)O)CC4)CC3)[nH]c3nccc(c23)-c2cc(F)ccc21 [Example 124, {cis-4-[4-(10-fluoro-7-methyl-6,7-dihydro-4H-3,4,7-triazadibenzo[cd,f]azulen-5-yl)-3,6-dihydropyridin-1(2H)-yl]cyclohexyl}acetic acid] | 
9 | 300 | 54 | CN1Cc2c(C3=C[C@@H]4COC(=O)N4CC3)[nH]c3nccc(c23)-c2cc(F)c(F)cc21 [Example 125, (8aR)-7-(9,10-difluoro-7-methyl-6,7-dihydro-4H-3,4,7-triazadibenzo[cd,f]azulen-5-yl)-1,5,6,8a-tetrahydro[1,3]oxazolo[3,4-a]pyridin-3-one] | 
10 |  | 78 | CN1CCc2c(C3=CCN(S(C)(=O)=O)CC3)[nH]c3nccc(c23)-c2cc(F)ccc21 [Example 128, 8-fluoro-5-methyl-2-[1-(methylsulfonyl)-1,2,3,6-tetrahydropyridin-4-yl]-1,3,4,5-tetrahydro-1,5,12-triazabenzo[4,5]cycloocta[1,2,3-cd]indene] | 150
